Reference: patent US20060188508A1, “Methods and compositions for modulating angiogenesis” (priority 2005, published 2006)
Ends that are not written are not given here.

Legend:
M2182tTA cells [1] = assay: Preliminary taxol exposure of plated cells before selection of resistant clones; assay type: cell-based, human; conditions: 5 days of exposure to 5 nM taxol; preliminary experiments
Clone 18 = assay: Drug sensitivity by MTT assay (IC50); assay type: cell-based, human; conditions: for IC50: MTT assay, mean ± SD of three determinations; for Fold of resistance (Clone 18/M2182tTA): IC50 of clone 18 divided with IC50 of M2182tTA; for Killing of clone 18 cells compared with parental cells: non-taxane drugs, Table 1
M2182tTA = assay: Drug sensitivity by MTT assay (IC50); assay type: cell-based, human; conditions: mean ± SD of three determinations
clone 18 cells [2] = assay: Modulation of drug cytotoxicity by added TSP-1, mimetic peptides, antibody or MDR inhibitor (MTT viability); assay type: cell-based, human; conditions: for Effect on taxol resistance / taxol cytotoxicity in clone 18: added to culture with various taxol concentrations, MTT
clone 18 cells [3] = assay: TUNEL assay of taxol-induced apoptosis; assay type: cell-based, human; conditions: taxol plus 7.5 μg/ml purified TSP-1, 3 days
M2182tTA cells [4] = assay: Modulation of drug cytotoxicity by added TSP-1, mimetic peptides, anti-CD47 antibody or pertussis toxin (MTT viability); assay type: cell-based, human
[5] = target: CD47 receptor (integrin-associated protein) (human, UniProt Q08722 19-323); assay: cell-based or functional assay
[6] = adriamycin, etoposide, vinblastine, vincristine, epothilone B

Molecule	IC50 (Clone 18; Homo sapiens)	Fold of resistance (Clone 18/M2182tTA) (Clone 18)	IC50 (M2182tTA; Homo sapiens)	Killing of clone 18 cells compared with parental cells (Clone 18)	Effect on taxol resistance / taxol cytotoxicity in clone 18 (clone 18 cells [2])	also measured
CC(=O)O[C@H]1C(=O)[C@@]2(C)[C@H]([C@H](OC(=O)c3ccccc3)[C@]3(O)C[C@H](OC(=O)[C@H](O)[C@@H](NC(=O)c4ccccc4)c4ccccc4)C(C)=C1C3(C)C)[C@]1(OC(C)=O)CO[C@@H]1C[C@@H]2O [Taxol, Paclitaxel]	17.5 ± 0.18 nM	2.45	7.2 ± 0.11 nM	–	–	Surviving M2182tTA cells (M2182tTA cells [1]): no surviving M2182tTA cells; Fold of resistance (Clone 18/M2182tTA) (Clone 18; listed as taxol): approximately two and a half-fold
CC[C@]1(O)C[C@@H]2CN(CCc3c([nH]c4ccccc34)[C@@](C(=O)OC)(c3cc4c(cc3OC)N(C)[C@H]3[C@@](O)(C(=O)OC)[C@H](OC(C)=O)[C@]5(CC)C=CCN6CC[C@]43[C@@H]65)C2)C1 [Vinblastine, vinblastine]	7 ± 0.21 nM	0.93	7.5 ± 0.18 nM	No evidence of reduced killing	–	–
COc1cc([C@@H]2c3cc4c(cc3[C@@H](O[C@@H]3O[C@@H]5CO[C@@H](C)O[C@H]5[C@H](O)[C@H]3O)[C@H]3COC(=O)[C@H]23)OCO4)cc(OC)c1O [Etoposide, etoposide]	650 ± 60 nM	0.81	800 ± 30 nM	No evidence of reduced killing	–	–
CC[C@]1(O)C[C@H]2CN(CCc3c([nH]c4ccccc34)[C@@](C(=O)OC)(c3cc4c(cc3OC)N(C=O)[C@H]3[C@@](O)(C(=O)OC)[C@H](OC(C)=O)[C@]5(CC)C=CCN6CC[C@]43[C@@H]65)C2)C1 [Vincristine, vincristine]	12 ± 0.42 nM	1.09	–	No evidence of reduced killing	–	–
KRFYGGMWKK [4NGG]	–	–	–	–	no effect	–
COc1cccc2c1C(=O)c1c(O)c3c(c(O)c1C2=O)C[C@@](O)(C(=O)CO)C[C@@H]3O[C@H]1C[C@H](N)[C@H](O)[C@H](C)O1 [Adriamycin, adriamycin]	0.133 ± 0.0071 µg/mL	0.83	0.15 ± 0.0099 µg/mL	No evidence of reduced killing	–	–
TSP-1: TSP-1 purified from human platelets, purchased from EMD Biosciences	–	–	–	–	dose-dependent partial reversal	Taxol-induced apoptosis (clone 18 cells [3]): dramatically and synergistically increased; Survival and apoptosis with agent alone (clone 18 cells [2]; TSP-1 alone at the dosage added to clone 18 cultures): only limited ability to reduce survival and induce apoptosis; Effect on killing of clone 18 cells by other chemotherapeutic agents (clone 18 cells [2]; [6]): no effects; Effect on taxol-mediated killing of naïve M2182tTA cells (M2182tTA cells [4]; added to culture with taxol, MTT): reduced survival; Effect on sensitivity of M2182tTA cells to other chemotherapeutic drugs (M2182tTA cells [4]; [6]): sensitization was not observed
KRFYVVMWKK [4N1K]	–	–	–	–	dose-dependent partial reversal	–
C/C(=C\c1csc(C)n1)[C@@H]1C[C@@H]2O[C@]2(C)CCC[C@H](C)[C@H](O)[C@@H](C)C(=O)C(C)(C)[C@@H](O)CC(=O)O1 [Epothilone B]	–	0.9	–	No evidence of reduced killing	–	IC50 (Clone 18): 0.68 ± 0.21 nM; IC50 (M2182tTA): 0.75 ± 0.35 nM
GVITRIR (human) [ABT-510]	–	–	–	–	no effect	–
CC(=O)O[C@@]12CO[C@@H]1C[C@H](O)[C@@]1(C)C(=O)[C@H](O)C3=C(C)[C@@H](OC(=O)[C@H](O)[C@@H](NC(=O)OC(C)(C)C)c4ccccc4)C[C@@](O)([C@@H](OC(=O)c4ccccc4)[C@H]21)C3(C)C [Docetaxel]	6.93 ± 0.05 nM	2.62	2.66 ± 0.11 nM	–	–	–
anti-CD47 monoclonal antibody, clone B6H12 (BD Pharmingen) (antibody) EVQLVESGGDLVKPGGSLKLSCAASGFTFSGYGMSWVRQTPDKRLEWVATITSGGTYTYYPDSVKGRFTISRDNAKNTLYLQIDSLKSEDTAIYFCARSLAGNAMDYWGQGTSVTVSSGGGGSGGGGSGGGGSDIVMTQSPATLSVTPGDRVSLSCRASQTISDYLHWYQQKSHESPRLLIKFASQSISGIPSRFSGSGSGSDFTLSINSVEPEDVGVYYCQNGHGFPRTFGGGTKLEIK	–	–	–	–	–	viability of M2182tTA cells to taxol treatment (MTT assay, 10 ug/ml antibody) [5]: 2.2 fold
